Consider 15 molecules from patent publication US11834453B2, “Substituted pyrimido[5,4-d]pyrimidines as HER2 inhibitors” (Array BioPharma Inc., priority 2020, dated 2023).

By IC50 is commonly meant the point on the concentration scale where inhibition reaches its midpoint.

Test [1] concerns the target ErbB2 insYVMA (HER2-YVMA, SEQ ID NO: 2) (Homo sapiens, UniProt P04626, INS775YVMA/P1170A). The test can be described thus: biochemical. The note with it: ErbB2 insYVMA enzyme assay.
Test [2] deals with ErbB2 WT (Homo sapiens (Human), UniProt P04626). In words: ErbB enzyme assay (CisBio HTRF KinEASE-TK), Assay 2. In kind it is biochemical. The method, boiled down:
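Readout is HTRF KinEASE-TK, using Sa-XL665 and cryptate antibody for 1 h at 22 °C, as percent of control between DMSO-only (100) and pre-quenched (0) reactions. The kinase reaction runs 30 min at 22 °C with 1 mM ATP and 250 nM biotinylated TK substrate, in HEPES pH 7.4 with MgCl2 and 2% DMSO.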
Background: TR-FRET usually uses a lanthanide donor and a delayed reading to cut background.

The target of test [3] is EGFR (Homo sapiens (Human), UniProt P00533). The test can be described thus: ErbB enzyme assay (CisBio HTRF KinEASE-TK), Assay 3. It counts as biochemical. The method, boiled down:
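HTRF dual-wavelength read after 1 h detection; POC normalised to DMSO (100) and pre-quenched (0) controls, IC50 where 4-parameter curve crosses 50 POC. Reaction: 250 nM TK-substrate biotin, 1 mM ATP, pH 7.4 HEPES buffer with MgCl2, 30 min, 22 °C.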

In test [4] the target is ErbB2 with Exon 20 YVMA insertion (HER2-YVMA) (Homo sapiens (Human), UniProt P04626, INS775YVMA). The test can be described thus: Cellular phosphorylation assay, constitutive ErbB2 phosphorylation (Y1196) in engineered NIH 3T3 cells, Assay 4. It counts as cell-based. The method in brief: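 In-cell Western in NIH 3T3 cells carrying ErbB2 exon 20 YVMA insertion, with no ligand stimulation. One hour compound exposure at 37 °C before fixation and anti-pY1196 plus GAPDH staining with dual-wavelength fluorescence. IC50 derived after GAPDH normalization.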

Test [5] addresses EGFR wild type (EGFR WT) (Homo sapiens (Human), UniProt P00533). The test can be described thus: Cellular phosphorylation assay, EGF-stimulated EGFR phosphorylation in engineered NIH 3T3 cells, Phospho-EGFR DuoSet IC ELISA, Assay 5. In kind it is cell-based. As for the experimental part: NIH 3T3 cells were engineered to express EGFR wild type (EGFR WT; Assay 5, no footnote) with constructs obtained from GenScript and grown in DMEM supplemented with 10% fetal bovine serum and 15 μg/ml blasticidin. Cells were plated in 96-well plates at 20,000 cells/well and allowed to attach overnight at 37° C./5% CO2. Serially diluted compounds were added to the plates for 1 hour at 37° C./5% CO2. EGFR WT cells were stimulated with 100 ng/ml rEGF for an additional 10 minutes at 37° C./5% CO2. After compound incubation, medium was removed from the cells, which were then lysed in 100 μL/well lysis buffer according to the manufacturer's protocol (R&D Systems, DYC1095, Human Phospho-EGFR DuoSet IC ELISA). Same protocol was followed to determine the total levels of phospho-EGFR by measuring the optical density of each well using a VersaMax microplate reader. Curves were then generated and IC50 values calculated.

Read-outs that look alike come from different tables or passages of the source. Some results are limits rather than exact numbers.

EGFR wild type (EGFR WT), sequence (P00533 25-1210): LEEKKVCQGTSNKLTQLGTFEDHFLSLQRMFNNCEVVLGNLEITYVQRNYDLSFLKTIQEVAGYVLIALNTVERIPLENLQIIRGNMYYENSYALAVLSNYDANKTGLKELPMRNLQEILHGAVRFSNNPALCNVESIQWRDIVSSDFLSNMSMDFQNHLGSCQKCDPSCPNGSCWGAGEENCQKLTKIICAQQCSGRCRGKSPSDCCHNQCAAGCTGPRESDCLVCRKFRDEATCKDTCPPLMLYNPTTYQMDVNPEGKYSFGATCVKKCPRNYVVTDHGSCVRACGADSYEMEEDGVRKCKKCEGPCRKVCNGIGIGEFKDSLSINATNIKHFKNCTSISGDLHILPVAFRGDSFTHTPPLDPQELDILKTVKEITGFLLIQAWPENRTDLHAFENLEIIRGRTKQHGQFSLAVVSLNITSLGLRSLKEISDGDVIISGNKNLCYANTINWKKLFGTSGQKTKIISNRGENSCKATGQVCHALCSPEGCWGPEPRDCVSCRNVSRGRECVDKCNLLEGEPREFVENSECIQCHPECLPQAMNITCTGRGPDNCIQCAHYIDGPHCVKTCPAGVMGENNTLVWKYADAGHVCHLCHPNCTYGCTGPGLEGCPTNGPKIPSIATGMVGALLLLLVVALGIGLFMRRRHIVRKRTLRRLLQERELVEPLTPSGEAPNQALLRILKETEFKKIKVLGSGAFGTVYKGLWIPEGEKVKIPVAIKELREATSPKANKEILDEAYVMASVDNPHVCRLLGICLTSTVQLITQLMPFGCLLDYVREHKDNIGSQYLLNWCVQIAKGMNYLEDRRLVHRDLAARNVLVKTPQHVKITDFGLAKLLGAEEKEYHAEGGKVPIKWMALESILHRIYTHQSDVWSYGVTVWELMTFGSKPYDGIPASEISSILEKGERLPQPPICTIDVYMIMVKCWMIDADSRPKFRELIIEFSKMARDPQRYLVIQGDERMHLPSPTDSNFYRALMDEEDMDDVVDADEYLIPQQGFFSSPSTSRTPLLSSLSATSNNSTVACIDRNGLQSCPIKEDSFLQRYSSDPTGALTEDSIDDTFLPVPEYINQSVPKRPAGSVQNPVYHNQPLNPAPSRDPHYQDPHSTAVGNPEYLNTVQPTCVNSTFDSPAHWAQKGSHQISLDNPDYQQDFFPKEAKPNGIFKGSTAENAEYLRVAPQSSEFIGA
EGFR, sequence (P00533 25-1210): as above
ErbB2 insYVMA (HER2-YVMA, SEQ ID NO: 2), sequence (P04626 with tags, fused parts or gaps INS775YVMA/P1170A limits assumed): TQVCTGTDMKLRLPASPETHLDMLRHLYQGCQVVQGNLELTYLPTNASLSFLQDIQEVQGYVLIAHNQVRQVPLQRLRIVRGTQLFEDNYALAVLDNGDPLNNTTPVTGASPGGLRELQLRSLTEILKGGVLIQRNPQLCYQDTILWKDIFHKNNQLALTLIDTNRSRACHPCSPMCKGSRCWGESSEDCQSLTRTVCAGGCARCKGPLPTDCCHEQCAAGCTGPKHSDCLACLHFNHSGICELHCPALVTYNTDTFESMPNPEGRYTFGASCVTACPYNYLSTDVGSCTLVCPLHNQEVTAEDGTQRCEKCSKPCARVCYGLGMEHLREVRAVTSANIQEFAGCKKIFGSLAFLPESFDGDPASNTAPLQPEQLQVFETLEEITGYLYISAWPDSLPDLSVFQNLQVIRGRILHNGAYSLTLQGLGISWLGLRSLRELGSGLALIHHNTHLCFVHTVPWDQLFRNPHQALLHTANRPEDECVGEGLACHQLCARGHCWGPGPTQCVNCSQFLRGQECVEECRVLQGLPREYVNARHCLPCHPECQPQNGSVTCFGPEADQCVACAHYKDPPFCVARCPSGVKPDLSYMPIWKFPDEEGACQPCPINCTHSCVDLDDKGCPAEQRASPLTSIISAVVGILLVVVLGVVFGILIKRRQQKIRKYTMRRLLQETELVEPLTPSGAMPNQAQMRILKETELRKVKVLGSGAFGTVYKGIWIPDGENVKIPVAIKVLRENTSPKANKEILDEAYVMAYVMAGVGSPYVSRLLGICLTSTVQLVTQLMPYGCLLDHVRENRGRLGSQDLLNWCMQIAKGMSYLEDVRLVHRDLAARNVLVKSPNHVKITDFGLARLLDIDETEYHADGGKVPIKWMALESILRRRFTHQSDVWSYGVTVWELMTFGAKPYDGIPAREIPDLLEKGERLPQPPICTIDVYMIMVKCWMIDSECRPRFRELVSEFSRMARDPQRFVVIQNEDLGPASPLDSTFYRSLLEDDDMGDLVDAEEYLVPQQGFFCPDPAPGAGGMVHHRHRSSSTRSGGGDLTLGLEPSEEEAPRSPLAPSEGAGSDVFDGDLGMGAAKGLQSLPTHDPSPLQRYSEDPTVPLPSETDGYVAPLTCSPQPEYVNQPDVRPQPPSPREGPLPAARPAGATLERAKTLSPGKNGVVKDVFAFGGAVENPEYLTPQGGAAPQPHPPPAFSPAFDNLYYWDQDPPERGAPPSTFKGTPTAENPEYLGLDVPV
ErbB2 with Exon 20 YVMA insertion (HER2-YVMA), sequence (P04626 other isoform, or with tags, fused parts or gaps ins YVMA behind 775): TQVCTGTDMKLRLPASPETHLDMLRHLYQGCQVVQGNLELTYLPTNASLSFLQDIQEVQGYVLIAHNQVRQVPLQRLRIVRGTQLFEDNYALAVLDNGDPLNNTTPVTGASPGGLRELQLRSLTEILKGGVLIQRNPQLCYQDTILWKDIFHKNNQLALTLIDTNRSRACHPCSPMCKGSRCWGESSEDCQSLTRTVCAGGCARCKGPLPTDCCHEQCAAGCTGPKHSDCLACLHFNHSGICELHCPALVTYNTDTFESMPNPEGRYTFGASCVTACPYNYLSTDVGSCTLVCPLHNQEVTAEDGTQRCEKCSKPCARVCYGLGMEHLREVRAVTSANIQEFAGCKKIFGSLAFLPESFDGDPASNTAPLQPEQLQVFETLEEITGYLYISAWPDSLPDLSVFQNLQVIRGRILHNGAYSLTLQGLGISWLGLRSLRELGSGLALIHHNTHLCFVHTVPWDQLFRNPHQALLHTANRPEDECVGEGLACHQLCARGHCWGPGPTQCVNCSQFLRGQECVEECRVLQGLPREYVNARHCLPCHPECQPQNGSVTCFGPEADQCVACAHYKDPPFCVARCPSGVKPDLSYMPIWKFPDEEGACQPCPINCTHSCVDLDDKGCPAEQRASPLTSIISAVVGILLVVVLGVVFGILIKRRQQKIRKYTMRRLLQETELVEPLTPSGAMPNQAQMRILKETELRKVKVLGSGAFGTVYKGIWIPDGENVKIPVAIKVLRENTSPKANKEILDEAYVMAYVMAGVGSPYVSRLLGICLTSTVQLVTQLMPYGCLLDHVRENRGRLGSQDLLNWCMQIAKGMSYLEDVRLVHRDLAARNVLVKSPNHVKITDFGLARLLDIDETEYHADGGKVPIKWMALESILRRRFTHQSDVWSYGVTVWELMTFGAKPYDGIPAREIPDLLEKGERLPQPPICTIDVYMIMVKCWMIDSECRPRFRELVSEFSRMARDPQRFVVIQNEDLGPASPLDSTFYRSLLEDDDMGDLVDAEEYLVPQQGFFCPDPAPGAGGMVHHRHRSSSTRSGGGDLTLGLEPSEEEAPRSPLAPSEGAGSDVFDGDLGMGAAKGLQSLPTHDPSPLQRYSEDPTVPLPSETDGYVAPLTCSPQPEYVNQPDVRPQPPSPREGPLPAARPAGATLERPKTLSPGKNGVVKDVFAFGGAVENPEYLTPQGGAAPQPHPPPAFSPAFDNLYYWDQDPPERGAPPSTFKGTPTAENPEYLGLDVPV

In the case of `CON(C)c1ncc2ncnc(Nc3ccc(Oc4ccc5c(c4)ncn5C)c(C)c3)c2n1` [Example 22, 6-(methoxy(methyl)amino)-N-(3-methyl-4-((1-methyl-1H-benzo[d]imidazol-5-yl)oxy)phenyl)pyrimido[5,4-d]pyrimidin-4-amine], the IC50 in test [1] (read-out: Assay 1 IC50) was 25.5 nM; in test [2], 52.4 nM; in test [3] it was 8700 nM; in test [4], 13 nM; in test [5] it was at least 5000 nM.

Turning to `Cc1cc(Nc2ncnc3cnc(N4CC5(COC5)C4)nc23)ccc1Oc1ccc2c(c1)ncn2C` [Example 26, N-(3-methyl-4-((1-methyl-1H-benzo[d]imidazol-5-yl)oxy)phenyl)-6-(2-oxa-6-azaspiro[3.3]heptan-6-yl)pyrimido[5,4-d]pyrimidin-4-amine], the IC50 was 85.6 nM in test [1] (read-out: Assay 1 IC50); 507 nM in test [2]; at least 10000 nM in test [3]; 62.2 nM in test [4]; at least 5000 nM in test [5].

With `Cc1cc(Nc2ncnc3cnc(N4CCC45COC5)nc23)ccc1Oc1ccc2c(c1)ncn2C` [Example 27, N-(3-methyl-4-((1-methyl-1H-benzo[d]imidazol-5-yl)oxy)phenyl)-6-(6-oxa-1-azaspiro[3.3]heptan-1-yl)pyrimido[5,4-d]pyrimidin-4-amine], the half-maximal inhibitory concentration (IC50) in test [1] (read-out: Assay 1 IC50) is 20 nM; in test [2], 50.8 nM; in test [3] it was at least 10000 nM; in test [4] it was 9.3 nM; in test [5], at least 5000 nM.

For `Cc1cc(Nc2ncnc3cnc(N4CCN(C)S4(=O)=O)nc23)ccc1Oc1ccc2c(c1)ncn2C` [Example 29, 2-methyl-5-(8-((3-methyl-4-((1-methyl-1H-benzo[d]imidazol-5-yl)oxy)phenyl)amino)pyrimido[5,4-d]pyrimidin-2-yl)-1,2,5-thiadiazolidine 1,1-dioxide], the 50% inhibitory concentration (IC50) in test [1] (read-out: Assay 1 IC50) is 37.8 nM; in test [2] it was 65.9 nM; in test [3], at least 10000 nM; in test [4], 20.6 nM; in test [5] it was at least 5000 nM.

For the molecule `Cc1cc(Nc2ncnc3cnc(NC4CC(F)(F)C4)nc23)ccc1Oc1ccc2c(c1)ncn2C` [Example 30, N2-(3,3-difluorocyclobutyl)-N8-(3-methyl-4-((1-methyl-1H-benzo[d]imidazol-5-yl)oxy)phenyl)pyrimido[5,4-d]pyrimidine-2,8-diamine], the half-maximal inhibitory concentration (IC50) in test [1] (read-out: Assay 1 IC50) is 104 nM; in test [2], 196 nM; in test [3], at least 10000 nM; in test [4], 165 nM; in test [5], at least 5000 nM.

As for `Cc1cc(Nc2ncnc3cnc(N4CC(F)(F)C4)nc23)ccc1Oc1ccc2c(c1)ncn2C` [Example 38, 6-(3,3-difluoroazetidin-1-yl)-N-(3-methyl-4-((1-methyl-1H-benzo[d]imidazol-5-yl)oxy)phenyl)pyrimido[5,4-d]pyrimidin-4-amine], the IC50 in test [1] (read-out: Assay 1 IC50) is 183 nM; in test [2] it was 403 nM; in test [3], at least 10000 nM; in test [4], 65.1 nM; in test [5] it was at least 5000 nM.

On to `Cc1ncc(-c2ncc3ncnc(Nc4ccc(Oc5ccc6c(c5)ncn6C)c(C)c4)c3n2)s1` [Example 42, N-(3-methyl-4-((1-methyl-1H-benzo[d]imidazol-5-yl)oxy)phenyl)-6-(2-methylthiazol-5-yl)pyrimido[5,4-d]pyrimidin-4-amine], for which the IC50 in test [1] (read-out: Assay 1 IC50) was 58.2 nM; in test [2], 176 nM; in test [3], at least 10000 nM; in test [4], 16.8 nM; in test [5], at least 5000 nM.

For `Cc1cc(Nc2ncnc3cnc(N4CCC4)nc23)ccc1Oc1ccc2scnc2c1` [Example 44, 6-(azetidin-1-yl)-N-(4-(benzo[d]thiazol-5-yloxy)-3-methylphenyl)pyrimido[5,4-d]pyrimidin-4-amine 2,2,2-trifluoroacetate], the IC50 in test [1] (read-out: Assay 1 IC50) was 103 nM; in test [2], 315 nM; in test [3], 3310 nM; in test [4], 70.6 nM; in test [5] it was at least 5000 nM.

In the case of `CCOc1ncc2ncnc(Nc3ccc(Oc4ccc5scnc5c4)c(C)c3)c2n1` [Example 46, N-(4-(benzo[d]thiazol-5-yloxy)-3-methylphenyl)-6-ethoxpyrimido[5,4-d]pyrimidin-4-amine 2,2,2-trifluoroacetate], the IC50 was 95.2 nM in test [1] (read-out: Assay 1 IC50); 760 nM in test [2]; 4250 nM in test [3]; 566 nM in test [4]; at least 5000 nM in test [5].

On to `Cc1cc(Nc2ncnc3cnc(N4CCOC5(CC5)C4)nc23)ccc1Oc1ccc2c(c1)ncn2C` [Example 58, N-(3-methyl-4-((1-methyl-1H-benzo[d]imidazol-5-yl)oxy)phenyl)-6-(4-oxa-7-azaspiro[2.5]octan-7-yl)pyrimido[5,4-d]pyrimidin-4-amine], for which the IC50 was 62.5 nM in test [1] (read-out: Assay 1 IC50); 123 nM in test [2]; at least 10000 nM in test [3]; 10.6 nM in test [4]; at least 5000 nM in test [5].

Take `COC[C@@H](C)Nc1ncc2ncnc(Nc3ccc(Oc4ccc5c(c4)ncn5C)c(C)c3)c2n1` [Example 61, (R)—N2-(1-methoxypropan-2-yl)-N8-(3-methyl-4-((1-methyl-1H-benzo[d]imidazol-5-yl)oxy)phenyl)pyrimido[5,4-d]pyrimidine-2,8-diamine]: the 50% inhibitory concentration (IC50) is 36.9 nM in test [1] (read-out: Assay 1 IC50); 107 nM in test [2]; at least 10000 nM in test [3]; 49.5 nM in test [4]; at least 5000 nM in test [5].

On to `COC[C@H](C)Nc1ncc2ncnc(Nc3ccc(Oc4ccc5c(c4)ncn5C)c(C)c3)c2n1` [Example 62, (S)—N2-(1-methoxypropan-2-yl)-N8-(3-methyl-4-((1-methyl-1H-benzo[d]imidazol-5-yl)oxy)phenyl)pyrimido[5,4-d]pyrimidine-2,8-diamine], for which the IC50 in test [1] (read-out: Assay 1 IC50) was 39.8 nM; in test [2], 112 nM; in test [3] it was at least 10000 nM; in test [4], 27.1 nM; in test [5], at least 5000 nM.

In the case of `Cc1c(Oc2ccc3c(c2)ncn3C)ccc(Nc2ncnc3cnc(N(C)C)nc23)c1F` [Example 71, N8-(2-fluoro-3-methyl-4-((1-methyl-1H-benzo[d]imidazol-5-yl)oxy)phenyl)-N2,N2-dimethylpyrimido[5,4-d]pyrimidine-2,8-diamine 2,2,2-trifluoroacetate], the IC50 is 70.2 nM in test [1] (Assay 1 IC50 (nM)); 299 nM in test [2]; at least 10000 nM in test [3]; 76.6 nM in test [4]; at least 5000 nM in test [5].

On to `Cc1cc(Nc2ncnc3cnc(N4CCOCC4)nc23)ccc1Oc1ccc2c(c1)ncn2C1CC1` [Example 73, N-(4-((1-cyclopropyl-1H-benzo[d]imidazol-5-yl)oxy)-3-methylphenyl)-6-morpholinopyrimido[5,4-d]pyrimidin-4-amine 2,2,2-trifluoroacetate], for which the half-maximal inhibitory concentration (IC50) is 78 nM in test [1] (Assay 1 IC50 (nM)); 163 nM in test [2]; at least 10000 nM in test [3]; 47.5 nM in test [4]; at least 5000 nM in test [5].

For the molecule `Cc1cc(Nc2ncnc3cnc(N4CCN(CC(F)(F)F)CC4)nc23)ccc1Oc1ccc2c(c1)ncn2C` [Example 85, N-(3-methyl-4-((1-methyl-1H-benzo[d]imidazol-5-yl)oxy)phenyl)-6-(4-(2,2,2-trifluoroethyl)piperazin-1-yl)pyrimido[5,4-d]pyrimidin-4-amine], the IC50 in test [1] (read-out: Assay 1 IC50) is 204 nM; in test [2] it was 726 nM; in test [3], at least 10000 nM; in test [4], 130 nM; in test [5], at least 5000 nM.
